Measurements taken from patent US10487068B2, “Pyridazine derivatives as RORc modulators” (Genentech, Inc., priority 2015, dated 2019).

Target: T1, RORc ligand binding domain (Homo sapiens, UniProt P51449)
T1 sequence (P51449 269-508 limits assumed): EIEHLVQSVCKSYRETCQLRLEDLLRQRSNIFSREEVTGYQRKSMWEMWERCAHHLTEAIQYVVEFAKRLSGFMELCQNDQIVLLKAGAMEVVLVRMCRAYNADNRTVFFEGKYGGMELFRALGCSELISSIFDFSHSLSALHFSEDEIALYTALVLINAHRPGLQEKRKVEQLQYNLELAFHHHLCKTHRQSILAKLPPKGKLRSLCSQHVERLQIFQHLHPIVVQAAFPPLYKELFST
Test: In Vitro RORc Ligand Binding Assay
Settings: RORc IC50, radioligand 25-[3H]hydroxycholesterol 6 nM; 0.6 ug/mL RORc receptor; 3 h at 25° C.

SMILES	IC50 [nM]
CC(C)(O)c1nnc(-c2cccc([C@@]34CC[C@@H](c5cc(-c6c(F)cccc6F)nnc53)C4(C)C)n2)[nH]1 [Example 214, 2-(5-(6-((5R,8S)-3-(2,6-difluorophenyl)-9,9-dimethyl-5,6,7,8-tetrahydro-5,8-methanocinnolin-8-yl)pyridin-2-yl)-4H-1,2,4-triazol-3-yl)propan-2-ol]	30.5
CC1(C)[C@H]2CC[C@]1(c1cccc(-n3cnnc3)n1)c1nnc(-c3c(F)cccc3F)cc12 [Example 216]	12.7
CC1(C)[C@H]2CC[C@]1(c1nc(C(=O)NCCO)ncc1F)c1nnc(-c3c(F)cccc3F)cc12 [Example 218]	60.7
C[C@@H](O)c1nnc(-c2cccc([C@@]34CC[C@@H](c5cc(-c6c(F)cccc6F)nnc53)C4(C)C)n2)[nH]1 [Example 221, (R)-1-(5-(6-((5R,8S)-3-(2,6-difluorophenyl)-9,9-dimethyl-5,6,7,8-tetrahydro-5,8-methanocinnolin-8-yl)pyridin-2-yl)-4H-1,2,4-triazol-3-yl)ethanol]	23.3
C[C@H](O)c1nnc(-c2cccc([C@@]34CC[C@@H](c5cc(-c6c(F)cccc6F)nnc53)C4(C)C)n2)[nH]1 [Example 222, (S)-1-(5-(6-((5R,8S)-3-(2,6-difluorophenyl)-9,9-dimethyl-5,6,7,8-tetrahydro-5,8-methanocinnolin-8-yl)pyridin-2-yl)-4H-1,2,4-triazol-3-yl)ethanol]	11
C[C@H](O)c1nnc(-c2cncc([C@@]34CC[C@@H](c5cc(-c6c(F)cccc6F)nnc53)C4(C)C)n2)[nH]1 [Example 224, (S)-1-(5-(6-((5R,8S)-3-(2,6-difluorophenyl)-9,9-dimethyl-5,6,7,8-tetrahydro-5,8-methanocinnolin-8-yl)pyrazin-2-yl)-4H-1,2,4-triazol-3-yl)ethanol]	12.4
C[C@@H](O)c1nnc(-c2cncc([C@@]34CC[C@@H](c5cc(-c6c(F)cccc6F)nnc53)C4(C)C)n2)[nH]1 [Example 225, (R)-1-(5-(6-((5R,8S)-3-(2,6-difluorophenyl)-9,9-dimethyl-5,6,7,8-tetrahydro-5,8-methanocinnolin-8-yl)pyrazin-2-yl)-4H-1,2,4-triazol-3-yl)ethanol]	21
Cc1nc(C#N)ncc1[C@@]12CC[C@@H](c3cc(-c4c(F)cccc4F)nnc31)C2(C)C [Example 227, 5-((5R,8S)-3-(2,6-difluorophenyl)-9,9-dimethyl-5,6,7,8-tetrahydro-5,8-methanocinnolin-8-yl)-4-methylpyrimidine-2-carbonitrile]	717
CC1(C)[C@H]2CC[C@]1(c1nc(C(=O)NCCO)ncc1Cl)c1nnc(-c3c(F)cccc3F)cc12 [Example 230]	55.2
CC1(C)[C@H]2CC[C@]1(c1nc(C#N)ncc1Cl)c1nnc(-c3c(F)cccc3F)cc12 [Example 233]	13.8
CC(C)(O)c1nnc(-c2ncc(F)c([C@@]34CC[C@@H](c5cc(-c6c(F)cccc6F)nnc53)C4(C)C)n2)[nH]1 [Example 234]	36.6
CC1(C)[C@H]2CC[C@]1(c1c(Br)cnc(C#N)c1F)c1nnc(-c3c(F)cccc3F)cc12 [Example 242, 5-bromo-4-((5R,8S)-3-(2,6-difluorophenyl)-9,9-dimethyl-5,6,7,8-tetrahydro-5,8-methanocinnolin-8-yl)-3-fluoropicolinonitrile]	5
CC1(C)[C@@H]2CC[C@@]1(c1nc(C#N)ncc1Cl)c1nnc(-c3c(F)cccc3F)cc12 [Example 245]	26.4
CC(C)(O)c1cc(-c2cncc([C@@]34CC[C@@H](c5cc(-c6c(F)cccc6F)nnc53)C4(C)C)n2)[nH]n1 [Example 247, 2-(5-(6-((5R,8S)-3-(2,6-difluorophenyl)-9,9-dimethyl-5,6,7,8-tetrahydro-5,8-methanocinnolin-8-yl)pyrazin-2-yl)-1H-pyrazol-3-yl)propan-2-ol]	20
CC(C)(O)c1noc(-c2cncc([C@@]34CC[C@@H](c5cc(-c6c(F)cccc6F)nnc53)C4(C)C)n2)n1 [Example 248, 2-(5-(6-((5R,8S)-3-(2,6-difluorophenyl)-9,9-dimethyl-5,6,7,8-tetrahydro-5,8-methanocinnolin-8-yl)pyrazin-2-yl)-1,2,4-oxadiazol-3-yl)propan-2-ol]	27
CC(C)(O)c1nnc(-c2ncc(Cl)c([C@@]34CC[C@@H](c5cc(-c6c(F)cccc6F)nnc53)C4(C)C)n2)[nH]1 [Example 249]	50.1
CC1(C)[C@H]2CC[C@]1(c1nc(C(N)=O)ncc1F)c1nnc(-c3c(F)cccc3F)cc12 [Example 250]	22.8
CC(C)(O)c1nc(-c2cncc([C@@]34CC[C@@H](c5cc(-c6c(F)cccc6F)nnc53)C4(C)C)n2)no1 [Example 256, 2-(3-(6-((5R,8S)-3-(2,6-difluorophenyl)-9,9-dimethyl-5,6,7,8-tetrahydro-5,8-methanocinnolin-8-yl)pyrazin-2-yl)-1,2,4-oxadiazol-5-yl)propan-2-ol]	10.1

The remaining lines, values ahead:

IC50 [nM]	SMILES
6.1	CC1(C)[C@H]2CC[C@]1(c1cccc(-c3ccn[nH]3)n1)c1nnc(-c3c(F)cccc3F)cc12 [Example 213]
28.1	CC1(C)[C@H]2CC[C@]1(c1ccnc(-n3cc(CCO)cn3)n1)c1nnc(-c3c(F)cccc3F)cc12 [Example 215]
7.4	CC1(C)[C@H]2CC[C@]1(c1cncc(F)c1)c1nnc(-c3c(F)cccc3F)cc12 [Example 217, (5R,8S)-3-(2,6-difluorophenyl)-8-(5-fluoropyridin-3-yl)-9,9-dimethyl-5,6,7,8-tetrahydro-5,8-methanocinnoline]
6.7	CC1(C)[C@H]2CC[C@]1(c1ccnc(-n3cnc(CO)c3)n1)c1nnc(-c3c(F)cccc3F)cc12 [Example 219]
25.3	CC1(C)[C@H]2CC[C@]1(c1ccnc(-n3cnc(C#N)n3)n1)c1nnc(-c3c(F)cccc3F)cc12 [Example 220]
62.3	Cc1nnc(-c2ccnc([C@@]34CC[C@@H](c5cc(-c6c(F)cccc6F)nnc53)C4(C)C)c2)[nH]1 [Example 223]
363	CC1(C)[C@H]2CC[C@]1(c1cc(=O)[nH]cn1)c1nnc(-c3c(F)cccc3F)cc12 [Example 226, 6-((5R,8S)-3-(2,6-difluorophenyl)-9,9-dimethyl-5,6,7,8-tetrahydro-5,8-methanocinnolin-8-yl)pyrimidin-4(3H)-one]
15.3	Cc1cc([C@@]23CC[C@@H](c4cc(-c5c(F)cccc5F)nnc42)C3(C)C)nc(C#N)n1 [Example 228]
3	CC1(C)[C@H]2CC[C@]1(c1cccc(-c3cn[nH]c3)n1)c1nnc(-c3c(F)cccc3F)cc12 [Example 229]
6.3	CC1(C)[C@H]2CC[C@]1(c1cncc(-n3ccnc3)n1)c1nnc(-c3c(F)cccc3F)cc12 [Example 231]
27.9	CC1(C)[C@H]2CC[C@]1(c1ccnc(-n3cnc(C(N)=O)n3)n1)c1nnc(-c3c(F)cccc3F)cc12 [Example 232]
9.4	CC1(C)[C@H]2CC[C@]1(c1cc(-c3cnc(CO)o3)ccn1)c1nnc(-c3c(F)cccc3F)cc12 [Example 235]
5.8	CC1(C)[C@H]2CC[C@]1(c1cncc(-n3cnc(CO)c3)n1)c1nnc(-c3c(F)cccc3F)cc12 [Example 236]
2.6	CC1(C)[C@H]2CC[C@]1(c1cccc(C(O)CO)n1)c1nnc(-c3c(F)cccc3F)cc12 (stereo partly drawn) [Example 237, 1-(6-((5R,8S)-3-(2,6-difluorophenyl)-9,9-dimethyl-5,6,7,8-tetrahydro-5,8-methanocinnolin-8-yl)pyridin-2-yl)ethane-1,2-diol]
39.4	CC1(C)[C@H]2CC[C@]1(c1ccnc(-n3cc(CO)cn3)n1)c1nnc(-c3c(F)cccc3F)cc12 [Example 238]
13.9	CC(C)(O)c1cn(-c2nccc([C@@]34CC[C@@H](c5cc(-c6c(F)cccc6F)nnc53)C4(C)C)n2)cn1 [Example 239]
4.5	CC(C)(O)c1coc(-c2cccc([C@@]34CC[C@@H](c5cc(-c6c(F)cccc6F)nnc53)C4(C)C)n2)n1 [Example 240, 2-(2-(6-((5R,8S)-3-(2,6-difluorophenyl)-9,9-dimethyl-5,6,7,8-tetrahydro-5,8-methanocinnolin-8-yl)pyridin-2-yl)oxazol-4-yl)propan-2-ol]
11	Cc1cc(-c2ccnc([C@@]34CC[C@@H](c5cc(-c6c(F)cccc6F)nnc53)C4(C)C)n2)on1 [Example 241, 5-(2-((5R,8R)-3-(2,6-difluorophenyl)-9,9-dimethyl-5,6,7,8-tetrahydro-5,8-methanocinnolin-8-yl)pyrimidin-4-yl)-3-methylisoxazole]
11.7	CC1(C)[C@H]2CC[C@]1(c1cncc(-n3cc(CO)cn3)n1)c1nnc(-c3c(F)cccc3F)cc12 [Example 243, (1-(6-((5R,8S)-3-(2,6-difluorophenyl)-9,9-dimethyl-5,6,7,8-tetrahydro-5,8-methanocinnolin-8-yl)pyrazin-2-yl)-1H-pyrazol-4-yl)methanol]
120	CC1(C)[C@H]2CC[C@]1(c1cc(-c3c[nH]c(=O)[nH]3)ccn1)c1nnc(-c3c(F)cccc3F)cc12 [Example 244]
8.4	CC1(C)[C@H]2CC[C@]1(c1cncc(-c3ccn[nH]3)n1)c1nnc(-c3c(F)cccc3F)cc12 [Example 246]
9.8	CC1(C)[C@H]2CC[C@]1(c1ccnc(-c3ccn[nH]3)n1)c1nnc(-c3c(F)cccc3F)cc12 [Example 251]
19.3	CC1(C)[C@H]2CC[C@]1(c1ccnc(-n3ccc(CO)n3)n1)c1nnc(-c3c(F)cccc3F)cc12 [Example 252]
5.7	CC1(C)[C@H]2CC[C@]1(c1ccnc(-c3cn[nH]c3)n1)c1nnc(-c3c(F)cccc3F)cc12 [Example 253]
4.4	CC1(C)[C@H]2CC[C@]1(c1ccnc(-c3cccnc3)n1)c1nnc(-c3c(F)cccc3F)cc12 [Example 254]
8.6	Cc1ncn(-c2cncc([C@@]34CC[C@@H](c5cc(-c6c(F)cccc6F)nnc53)C4(C)C)n2)n1 [Example 255]
